Experimental data: patent publication US20090247646A1, “USE OF RESVERATROL AND DERIVATIVES THEREOF FOR PROMOTING THE WELLNESS STATE IN MAMMALS” (priority 2006, published 2009)
Several values for one entry are separate records, joined by “and”; a condition that tells them apart may be missing. Equal values may be shown once.

Test system: gene expression in heart tissue
Test: Genome-wide gene expression in heart tissue of old mice fed a resveratrol-supplemented diet (Affymetrix Mouse Genome 430 2.0 array)
Format: in vivo
[1] = microtubule associated serine/threonine kinase 2, Genebank ID NM_008641
[2] = mitochondrial ribosomal protein L9, Genebank ID AK021196
[3] = mitochondrial ribosomal protein L27, Genebank ID NM_053161
[4] = mitochondrial ribosomal protein L43, Genebank ID NM_053164
[5] = mitogen activated protein kinase kinase kinase 4, Genebank ID U11548
[6] = myotubularin related protein 1, Genebank ID BB381813
[7] = myotubularin related protein 6, Genebank ID BC020019
[8] = neural precursor cell expressed, developmentally down-regulted gene 4, Genebank ID BG073415
[9] = proteasome (prosome, macropain) subunit, alpha type 2, Genebank ID NM_008944
[10] = protein kinase inhibitor, alpha, Genebank ID AK010212
[11] = protein kinase, interferon inducible double stranded RNA dependent activator, Genebank ID NM_011871
[12] = protein phosphatase 1B, magnesium dependent, beta isoform, Genebank ID AJ271833
[13] = protein tyrosine phosphatase 4a2, Genebank ID AW495875
[14] = protein tyrosine phosphatase 4a3, Genebank ID AK014601
[15] = protein tyrosine phosphatase, non-receptor type 21, Genebank ID AW987375
[16] = protein tyrosine phosphatase-like (proline instead of catalytic arginine), member a, Genebank ID BB014781
[17] = puromycin-sensitive aminopeptidase, Genebank ID AK010446
[18] = ribonuclease P2, Genebank ID BG069849
[19] = ribosome binding protein 1, Genebank ID AK019964
[20] = ring finger protein 13, Genebank ID NM_011883
[21] = sarcolemma associated protein, Genebank ID NM_032008
[22] = serum/glucocorticoid regulated kinase, Genebank ID NM_011361
[23] = sialyltransferase 10 (alpha-2,3-sialyltransferase VI), Genebank ID NM_018784
[24] = suppressor of initiator codon mutations, related sequence 1 (S. cerevisiae), Genebank ID BI693609
[25] = synaptojanin 2 binding protein, Genebank ID AK008254
[26] = tousled-like kinase 1, Genebank ID BM244995
[27] = transferrin receptor, Genebank ID AK011596
[28] = transient receptor potential cation channel, subfamily M, member 7, Genebank ID AV320241
[29] = tumor rejection antigen gp96, Genebank ID BE995678
[30] = ubiquitin protein ligase E3 component n-recognin 1, Genebank ID BQ173927
[31] = ubiquitin specific protease 3, Genebank ID BM936366
[32] = ubiquitin specific protease 10, Genebank ID NM_009462
[33] = ubiquitin-conjugating enzyme E2D 3 (UBC4/5 homolog, yeast), Genebank ID AK009276

Oc1ccc(/C=C/c2cc(O)cc(O)c2)cc1 [resveratrol, 3,4′,5-Trihydroxy-trans-stilbene]
% of res effect [1]: 161.6802% | Median RES [1]: 45140 | % of res effect [2]: 80.96% | Median RES [2]: 25890 | % of res effect [3]: 182.0376% | Median RES [3]: 91619 | % of res effect [4]: 104.1651% | Median RES [4]: 61436 | % of res effect [5]: 124.4234% | Median RES [5]: 9718 | % of res effect [6]: 78.35% | Median RES [6]: 14340 | % of res effect [7]: 86.67% | Median RES [7]: 16336 | % of res effect [8]: 52.89% | Median RES [8]: 86633 | share of age-changed genes changed in the direction of the group of younger adult mice (of 1285 genes, heart): 45.5% | % of res effect [9]: 104.7586% | Median RES [9]: 139883 | % of res effect [10]: 59.34% | Median RES [10]: 40073 | % of res effect [11]: 171.5674% | Median RES [11]: 13990 | % of res effect [12]: 63.71% | Median RES [12]: 52488 | % of res effect [13]: 71.59% | Median RES [13]: 200548 | % of res effect [14]: 210.2152% | Median RES [14]: 52165 | % of res effect [15]: 218.6485% | Median RES [15]: 4135 | % of res effect [16]: 76.7738% | Median RES [16]: 98966 | % of res effect [17]: 212.0408% | Median RES [17]: 19697 | expression of genes related to protein synthesis and protein folding (reduced in old animals, old animals fed resveratrol-supplemented diet): upregulated to or close to the level found in young animals | % of res effect [18]: 103.1963% | Median RES [18]: 23730 | % of res effect [19]: 152.3511% | Median RES [19]: 37971 | % of res effect [20]: 142.3463% | Median RES [20]: 33170 | % of res effect [21]: 86.14% | Median RES [21]: 11160 | Median RES (serine/threonine kinase 17b (apoptosis-inducing), Genebank ID AV173139 (two lines), listed as RES): 8039 and 12069 | % of res effect (serine/threonine kinase 17b (apoptosis-inducing), Genebank ID AV173139 (two lines), listed as res): 97.38% and 163.165% | % of res effect [22]: 173.4519% | Median RES [22]: 72667 | % of res effect [23]: 87.76% | Median RES [23]: 16650 | % of res effect [24]: 80.5962% | Median RES [24]: 203121 | % of res effect [25]: 121.5779% | Median RES [25]: 40710 | number of genes at a level of 80-90% compared to the young group (text b59, heart): 62 | number of genes that reached a level of 70-80% (text b59, heart): 53 | % of res effect [26]: 79.5126% | Median RES [26]: 4589 | % of res effect [27]: 54.0373% | Median RES [27]: 86773 | % of res effect [28]: 129.8764% | Median RES [28]: 19508 | % of res effect [29]: 94.11% | Median RES [29]: 53900 | % of res effect [30]: 97.81% | Median RES [30]: 7571 | % of res effect [31]: 151.8677% | Median RES [31]: 9725 | % of res effect [32]: 186.31% | Median RES [32]: 12090 | % of res effect [33]: 69.45% | Median RES [33]: 40250 | number of genes changed in the direction of the group of younger adult mice (within the 1285 genes significantly changed between young and old mice (at least 1.25-fold, p<0.01), heart): 585
